Measurements reported in patent US9861640B2, “Medicament for treatment of Alzheimer's disease” (KEMPHYS LTD., priority 2013, dated 2018).

How the values were obtained:
Aβ40 and Aβ42 = Aβ40 and Aβ42 sandwich ELISA of TBS-soluble and TBS-insoluble brain fractions; type: in vivo, mouse; settings: Am80 alone 3 mg/kg/d or 6 mg/kg/d for 17 days, oral
Method: APP23 mice begin forming amyloid deposits when they are 6 months old, but memory deficits in the MWM test appear quite early (before 3 months of age). Here, we used 8.5-month-old male APP23 mice and their WT littermates (C57BL/6J). We used stratified random sampling to divide mice (four to six per cage) into four groups to equalize the mean body weight of the study groups: mice given 0.5 mg/kg/d Am80, those given 5 mg/kg/d HX630, those given the mixture of 0.5 mg/kg/d Am80 and 5 mg/kg/d HX630, and those given the vehicle. […]
The TBS-soluble (TBS-extractable) fraction and the TBS-insoluble (but guanidine HC1-extractable) fraction from the cerebral hemispheres or hippocampus were prepared as described previously. The amounts of Aβ40 and Aβ42 in each fraction were determined by using sandwich ELISAs (294-64701 and 290-62601 (Wako), respectively), according to the manufacturer's instructions. The amounts of tumor necrosis factor-α (TNF-α) and IL-4 in the TBS-soluble fractions of cerebral cortex and hippocampus were analyzed by means of sandwich ELISAs KMC3012 (Invitrogen) and ELM-IL-4-001 (RayBiotech, Inc., Norcros, Ga., USA), respectively, according to the manufacturer's instructions. Protein concentrations were determined with the Bradford Protein Assay Reagent (Thermo Fisher Scientific Inc., Rockford, Ill., USA), with BSA as the standard.

CD36 = assay: Immunoblot of CD36 in rat primary microglia; type: cell-based; settings: 5 μM each, 48 h; relative to vehicle-treated cells
From the text: Primary microglia (type 1) were harvested from primary mixed glial cell cultures prepared from neonatal Wistar rat pups, as previously reported. Mouse microglial cell line MG5 and mouse glial cell line A1 were maintained as previously described. Mouse neuroblastoma cell line N1E-115 and Neuro 2a (American Type Culture Collection, Manassas, Va., USA) were maintained in Dulbecco's modified Eagle's medium (DMEM) supplemented with 10% fetal bovine serum (FBS), 20 U/ml penicillin (Invitrogen, Gaithersburg, Md., USA), and 20 μg/ml streptomycin (Invitrogen). Primary rat microglia were treated with Am80 (5 μM) and/or HX630 (5 μM) in the presence and absence of GW9662 (10 μM) for 48 h in Eagle's MEM supplemented with 10% FBS and 0.2% glucose. MG5 cells and A1 cells were treated with Am80 (5 μM) and/or HX630 (5 μM) for 48 h in DMEM containing 10% FBS. […]
Rat primary microglia and mouse microglial MG5 cells (5×10^6 cells per 100-mm dish) were homogenized in RIPA buffer [10 mM Hepes-NaOH (pH 7.4) containing 150 mM NaCl, 1 mM EDTA, 1% Triton X-100, 0.5% sodium deoxycholate, 0.1% SDS, 1 mM PMSF, 1 mg/ml leupeptin. […] Bound horseradish peroxidase-labeled antibodies were then detected via chemiluminescence (an ECL kit; Pierce, Rockford, Ill., USA). Protein concentrations were determined with the BCA Protein Assay Reagent (Pierce) and Bradford Protein Assay Reagent (Pierce).

Structure (SMILES)	Aβ levels in APP23 mice, higher dose (Aβ40 and Aβ42)	CD36 expression in rat primary microglia (CD36)
CC1(C)CCC(C)(C)c2cc(NC(=O)c3ccc(C(=O)O)cc3)ccc21 [Am80, 4-{(5,6,7,8-tetrahydro-5,5,8,8-tetramethyl-2-naphthalenyl)carbamoyl}benzoic acid]	neither reduced Aβ levels	–
CN1c2ccccc2N=C(c2ccc(C(=O)O)cc2)c2cc3c(cc21)C(C)(C)CCC3(C)C [HX630, 4-[5H-2,3-(2,5dimethyl-2,5-hexano)-5-methyldibenzo[b,e]-diazepin-11-yl]benzoic acid]	–	1.3 fold
